The supplement of paper PMC12137928

Tested on: HCT116
Details: 72 h
In short: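 Luminescence was read with CellTiter-Glo in HCT116 cells seeded at 250 per well in 1536-well plates. Signals were scaled between vehicle at 0% and positive control at -100%, then pattern-corrected. IC50 and maximal efficacy were obtained by fitting a four-parameter Hill equation.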

| SMILES | IC50 cell viability (ICRF193 0 nM) [µM] | IC50 cell viability (ICRF193 200 nM) [µM] |
| --- | --- | --- |
| O=[N+]([O-])c1cc(I)c(O)c(I)c1 [2,6-DIIODO-4-NITROPHENOL] | > 45.8 | > 45.8 |
| CCCCCCCCCCCCOCCO [2-(Dodecyloxy)ethanol] | > 45.8 | > 45.8 |
| O=[N+]([O-])C(Br)(CO)CO [2-Bromo-2-nitro-1,3-propanediol] | > 45.8 | > 45.8 |
| NC(=O)c1ccc([N+](=O)[O-])cc1Cl [2-Chloro-4-nitrobenzamide] | > 45.8 | > 45.8 |
| CCOc1ccccc1C(N)=O [2-Ethoxybenzamide] | > 45.8 | > 45.8 |
| CCCC(O)C(CC)CO (stereo not drawn) [2-Ethyl-1,3-hexanediol] | > 45.8 | > 45.8 |
| CCCCC(CC)COC(=O)c1ccc(N(C)C)cc1 (stereo not drawn) [2-Ethylhexyl 4-(dimethylamino)benzoate] | > 45.8 | > 45.8 |
| CCCCC(CC)COC(=O)c1ccccc1O (stereo not drawn) [2-Ethylhexyl salicylate] | > 45.8 | > 45.8 |
| COc1ccc(C(=O)c2ccccc2)c(O)c1 [2-Hydroxy-4-methoxybenzophenone] | > 45.8 | > 45.8 |
| O=C(Nc1ccc(O)cc1)c1ccccc1O [2-Hydroxy-N-(4-hydroxyphenyl)-benzamide] | > 45.8 | > 45.8 |
| CCCCCCCCCCCCCCCCCC(=O)OCCO [2-Hydroxyethyl octadecanoate] | > 45.8 | > 45.8 |
| O=C(O)CNC(=O)c1ccccc1I [2-Iodohippuric acid] | > 45.8 | > 45.8 |
| Sc1nc2ccccc2s1 [2-Mercaptobenzothiazole] | > 45.8 | > 45.8 |
| CCCCCCCCCCC(CO)CCCCCCCC (stereo not drawn) [2-Octyl-1-dodecanol] | > 45.8 | > 45.8 |
| OCCOc1ccccc1 [2-Phenoxyethanol] | > 45.8 | > 45.8 |
| OCCc1ccccc1 [2-Phenylethanol] | > 45.8 | > 45.8 |
| O=C1CC[C@@H](C(=O)O)N1 [2-Pyrrolidone-5-carboxylic acid] | > 45.8 | > 45.8 |
| O=C(O)c1ccccc1S [2-Thiosalicylic acid] | > 45.8 | > 45.8 |
| Cc1cc(Nc2ccccc2C(=O)O)ccc1Cl [2-[(4-Chloro-3-methylphenyl)amino]benzoic acid] | > 45.8 | > 45.8 |
| Cc1cn([C@H]2C[C@H](N=[N+]=[N-])[C@@H](CO)O2)c(=O)[nH]c1=O [3'-Azido-3'-deoxythymidine] | > 45.8 | > 45.8 |
| CC1CC(OC(=O)c2ccccc2O)CC(C)(C)C1 (stereo not drawn) [3,3,5-Trimethylcyclohexyl salicylate] | > 45.8 | > 45.8 |
| CCCCCCCCCCCCCCCCCCOCC(O)CO (stereo not drawn) [3-(Octadecyloxy)-1,2-propanediol] | > 45.8 | > 45.8 |
| OCCCNc1ccccc1 [3-Anilinopropan-1-ol] | > 45.8 | > 45.8 |
| CCOc1ccc(NC(=O)CC(C)O)cc1 (stereo not drawn) [3-Hydroxy-4-butyrophenetidide] | > 45.8 | > 45.8 |
| CC(C)CCON=O [3-Methylbutyl nitrite] | > 45.8 | > 45.8 |
| Cc1c[nH]c2ccccc12 [3-Methylindole] | > 45.8 | > 45.8 |
| CC(C)(C)CC(C)(C)c1ccc(O)cc1 [4-(1,1,3,3-Tetramethylbutyl)phenol] | > 45.8 | > 45.8 |
| CC(=O)Nc1ccc(C(=O)O)cc1 [4-Acetamidobenzoic acid] | > 45.8 | > 45.8 |
| CC(=O)Nc1ccc(CC(=O)O)cc1 [4-Acetylaminophenylacetic acid] | > 45.8 | > 45.8 |
